Eight compounds from EP1444982A1, “The use of purine derivatives as selective kinase inhibitors” (MERCKLE GMBH, priority 2003, dated 2004) can be followed below.

Format in all cases: biochemical
One assay has as its system PKA (h). Briefly: Kinase inhibition assay (33P-ATP, P30 filter, scintillation counting): PKA. The note with it: 30µM Testsubstanz (100 µM ATP); 40 min.
The target in another assay is SAPK2a (h) (Homo sapiens, UniProt Q16539). The assay is described as follows: Kinase inhibition assay (33P-ATP, P30 filter, scintillation counting): SAPK2a. To be noted: 30µM Testsubstanz (100 µM ATP); read-out: Hemmung von Kinasen in % SAPK2a (h). As for the experimental part: (§1) Alle Kinasen werden auf zehnfache Arbeitskonzentration vor Anwendung in dem Essay verdünnt. Die Zusammensetzung des Verdünnungspuffers ist für jede Kinase in der nachfolgenden Tabelle angegeben.
(§2) Alle Substrate werden gelöst und auf eine Stammlösung in entsalztem Wasser verdünnt.
SAPK2a (h) wird in einem Endreaktionsvolumen von 25 µl mit 25 mM Tris pH 7,5, 0.02 mM EGTA, 0.33 mg/ml Myelin-Basisprotein, 10 mM MgAcetat und [γ-^33P-ATP] inkubiert (spezifische Aktivität etwa 50 cpm/pmol, Konzentration wie erforderlich). Die Reaktion wird durch Zugabe von Mg^2+[γ-^33P-ATP] initiiert. Nach 40-minütiger Inkubation bei Raumtemperatur wird die Reaktion durch Zugabe von 5 µl einer 3 %igen Phosphorsäurelösung gestoppt. 10 µl der Reaktion werden dann auf ein P30-Filter gegeben und dreimal jeweils 5 Minuten in 50 mM Phosphorsäure und einmal in Methanol gewaschen. Anschließend wird getrocknet und eine Szintillationszählung durchgeführt.

Another assay addresses MAPK1 (h) (Homo sapiens, UniProt P27361). The assay is described as follows: Kinase inhibition assay: MAPK1. To be noted: 30µM Testsubstanz (100 µM ATP); read-out: Hemmung von Kinasen in % MAPK1 (h).
Description: as §1, §2

For a further assay, the target named is MAPK2 (h) (Homo sapiens, UniProt P28482). The assay is described as follows: Kinase inhibition assay: MAPK2. To be noted: 30µM Testsubstanz (100 µM ATP); read-out: Hemmung von Kinasen in % MAPK2 (h).
Description: as §1, §2

A further assay has as its target GSK3β (h) (Homo sapiens, UniProt P49841). The assay is described as follows: Kinase inhibition assay (33P-ATP, P30 filter, scintillation counting): GSK3β. To be noted: 30µM Testsubstanz (100 µM ATP); read-out: Hemmung von Kinasen in % GSK3β (h). As for the experimental part:
as §1, §2
GSK3β (h)(5-10mU) in einem Endreaktionsvolumen von 25 µl wird mit 8 mM MOPS pH 7.0, 0.2 mM EDTA, 20 µM […](p) EDEEE (phospho GS2 Peptid), 10 mM MgAcetat und [γ-^33P-ATP] inkubiert (spezifische Aktivität etwa 500 cpm/pmol, Konzentration wie erforderlich). Die Reaktion wird durch Zugabe von Mg^2+[γ-^33P-ATP] initiiert. Nach 40-minütiger Inkubation bei Raumtemperatur wird die Reaktion durch Zugabe von 5 µl einer 3 %igen Phosphorsäurelösung gestoppt. 10 µl der Reaktion werden dann auf ein P30-Filter gegeben und dreimal jeweils 5 Minuten in 50 mM Phosphorsäure und einmal in Methanol gewaschen. Anschließend wird getrocknet und eine Szintillationszählung durchgeführt.

The target in another assay is c-RAF (h) (Homo sapiens, UniProt P04049). Briefly: Kinase inhibition assay (33P-ATP, P30 filter, scintillation counting): c-RAF. The note with it: 40 min; 30µM Testsubstanz (100 µM ATP); read-out: Hemmung von Kinasen in % c-RAF (h). As to the method: as §1, §2
(§3) c-RAF (ha)(5-10 mU) in einem Endreaktionsvolumen von 25 µl wird mit 25 mM Tris pH 7.5,.0.02 mM EGTA, 0.66 mg/ml Myelin-Basisprotein, 10 mM MgAcetat und [γ-^33P-ATP] inkubiert (spezifische Aktivität etwa 50 cpm/pmol, Konzentration wie erforderlich). Die Reaktion wird durch Zugabe von Mg^2+[γ-^33P-ATP] initiiert. Nach 40-minütiger Inkubation bei Raumtemperatur wird die Reaktion durch Zugabe von 5 µl einer 3 %igen Phosphorsäurelösung gestoppt. 10 µl der Reaktion werden dann auf ein P30-Filter gegeben und dreimal jeweils 5 Minuten in 50 mM Phosphorsäure und einmal in Methanol gewaschen. Anschließend wird getrocknet und eine Szintillationszählung durchgeführt.

For the next assay, the target named is PKB (h) (Homo sapiens, UniProt P31749). Briefly: Kinase inhibition assay (33P-ATP, P30 filter, scintillation counting): PKB. The note with it: 40 min; 30µM Testsubstanz (100 µM ATP); read-out: Hemmung von Kinasen in % PKB (h). As to the method:
as §1, §2
PKBα (h)(5-10mU) wird in einem Endreaktionsvolumen von 25 µl mit 8 mM MOPS pH 7.0, 0.2 mM EDTRA, 30 µM GRPRTSSFAEGKK, 10 mM MgAcetat und [γ-^33P-ATP] inkubiert (spezifische Aktivität etwa 50 cpm/pmol, Konzentration wie erforderlich). Die Reaktion wird durch Zugabe von Mg^2+[γ-^33P-ATP] initiiert. Nach 40-minütiger Inkubation bei Raumtemperatur wird die Reaktion durch Zugabe von 5 µl einer 3 %igen Phosphorsäurelösung gestoppt. 10 µl der Reaktion werden dann auf ein P30-Filter gegeben und dreimal jeweils 5 Minuten in 50 mM Phosphorsäure und einmal in Methanol gewaschen. Anschließend wird getrocknet und eine Szintillationszählung durchgeführt.

In another assay the target is JNK3 (r) (Rattus norvegicus, UniProt P49187). Briefly: Kinase inhibition assay: JNK3. The note with it: 30µM Testsubstanz (100 µM ATP); read-out: Hemmung von Kinasen in % JNK3 (r).
Description: as §1, §2

In another assay the target is Lck (h) (Homo sapiens, UniProt P06239). The assay is described as follows: Kinase inhibition assay (33P-ATP, P30 filter, scintillation counting): Lck. The note with it: 30µM Testsubstanz (100 µM ATP); read-out: Hemmung von Kinasen in % Lck (h). As for the experimental part: as §1, §2
as §3, with “Lck (h)(5-10 mU)” for “c-RAF (ha)(5-10 mU)”, “mit 50” for “mit 25”, “pH 7.5, 0.1” for “pH 7.5,.0.02”, “EGTA, 0.1 mM NaVanadate, 250 µM KVEKIGEGTYGVVYK (Cdc2 Peptid),” for “EGTA, 0.66 mg/ml Myelin-Basisprotein,”, “etwa 500” for “etwa 50”

A further assay addresses MEK1 (h) (Homo sapiens, UniProt Q02750). The assay is described as follows: Kinase inhibition assay: MEK1 (coupled to MAPK2 assay). To be noted: 30µM Testsubstanz (100 µM ATP); read-out: Hemmung von Kinasen in % MEK1 (h). As to the method: as §1, §2
MEK1 (h)(1-5 mU) in einem Endreaktionsvolumen von 25 µl wird mit 50 mM Tris pH 7.5, 0.2 mM EGTA, 0.1 % b-Mercaptoethanol, 0,01 % Brij-35, 1 µM inaktives MAPK2 (m), 10 mM MgAcetat und kaltem ATP inkubiert (Konzentration wie erforderlich). Die Reaktion wird durch Zugabe von MgATB initiiert. Nach 40-minütiger Inkubation bei Raumtemperatur werden […] dieses Inkubationsgemisches dazu verwendet, den oben beschriebenen MAPK2-Assay zu initiieren.

The test system of another assay is ROCKII (h). Briefly: Kinase inhibition assay (33P-ATP, P30 filter, scintillation counting): ROCK-II. The note with it: 30µM Testsubstanz (100 µM ATP); 40 min.

SAPK2a (h), sequence (Q16539 whole entry): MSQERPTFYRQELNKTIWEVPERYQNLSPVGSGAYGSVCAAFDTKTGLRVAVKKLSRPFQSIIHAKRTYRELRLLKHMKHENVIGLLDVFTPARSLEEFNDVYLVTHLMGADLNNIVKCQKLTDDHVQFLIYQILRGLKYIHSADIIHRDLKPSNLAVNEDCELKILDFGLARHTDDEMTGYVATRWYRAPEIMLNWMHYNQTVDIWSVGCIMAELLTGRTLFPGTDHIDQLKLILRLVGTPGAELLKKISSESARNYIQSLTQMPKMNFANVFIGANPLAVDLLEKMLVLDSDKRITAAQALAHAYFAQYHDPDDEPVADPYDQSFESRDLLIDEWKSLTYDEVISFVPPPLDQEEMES
MAPK2 (h), sequence (P28482 whole entry): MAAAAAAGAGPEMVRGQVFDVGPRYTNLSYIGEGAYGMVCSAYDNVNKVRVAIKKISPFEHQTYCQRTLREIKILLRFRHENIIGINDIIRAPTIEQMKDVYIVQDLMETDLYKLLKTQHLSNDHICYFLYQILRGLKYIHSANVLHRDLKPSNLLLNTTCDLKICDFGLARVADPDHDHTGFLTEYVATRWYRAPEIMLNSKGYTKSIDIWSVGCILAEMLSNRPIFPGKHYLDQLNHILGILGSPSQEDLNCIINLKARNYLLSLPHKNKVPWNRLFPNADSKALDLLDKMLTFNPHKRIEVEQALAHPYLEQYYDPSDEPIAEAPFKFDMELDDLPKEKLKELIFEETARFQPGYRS
GSK3β (h), sequence (P49841 whole entry): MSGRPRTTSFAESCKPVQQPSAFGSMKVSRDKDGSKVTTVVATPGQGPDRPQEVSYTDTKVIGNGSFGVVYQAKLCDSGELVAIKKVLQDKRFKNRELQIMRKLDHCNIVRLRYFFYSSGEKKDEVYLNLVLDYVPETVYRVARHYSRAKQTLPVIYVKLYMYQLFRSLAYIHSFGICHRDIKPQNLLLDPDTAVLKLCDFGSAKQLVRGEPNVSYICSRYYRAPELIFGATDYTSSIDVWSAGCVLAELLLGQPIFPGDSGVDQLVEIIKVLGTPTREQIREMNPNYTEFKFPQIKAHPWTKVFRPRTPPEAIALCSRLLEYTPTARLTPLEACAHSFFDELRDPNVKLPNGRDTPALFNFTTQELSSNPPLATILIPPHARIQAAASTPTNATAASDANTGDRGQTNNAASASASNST
PKB (h), sequence (P31749 whole entry): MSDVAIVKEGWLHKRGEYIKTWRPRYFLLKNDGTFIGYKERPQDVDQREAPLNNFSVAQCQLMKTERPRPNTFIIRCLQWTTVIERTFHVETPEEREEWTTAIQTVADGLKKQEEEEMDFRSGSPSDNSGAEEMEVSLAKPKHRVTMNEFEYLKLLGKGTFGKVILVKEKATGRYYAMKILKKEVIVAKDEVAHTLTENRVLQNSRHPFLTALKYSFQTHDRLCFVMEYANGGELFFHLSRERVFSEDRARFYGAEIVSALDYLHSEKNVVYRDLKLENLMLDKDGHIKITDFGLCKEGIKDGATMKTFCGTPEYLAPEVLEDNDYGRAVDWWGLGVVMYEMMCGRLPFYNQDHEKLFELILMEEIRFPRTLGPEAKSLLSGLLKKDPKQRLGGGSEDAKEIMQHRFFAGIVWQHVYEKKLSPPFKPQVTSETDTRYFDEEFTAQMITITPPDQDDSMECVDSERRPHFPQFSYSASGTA
c-RAF (h), sequence (P04049 whole entry): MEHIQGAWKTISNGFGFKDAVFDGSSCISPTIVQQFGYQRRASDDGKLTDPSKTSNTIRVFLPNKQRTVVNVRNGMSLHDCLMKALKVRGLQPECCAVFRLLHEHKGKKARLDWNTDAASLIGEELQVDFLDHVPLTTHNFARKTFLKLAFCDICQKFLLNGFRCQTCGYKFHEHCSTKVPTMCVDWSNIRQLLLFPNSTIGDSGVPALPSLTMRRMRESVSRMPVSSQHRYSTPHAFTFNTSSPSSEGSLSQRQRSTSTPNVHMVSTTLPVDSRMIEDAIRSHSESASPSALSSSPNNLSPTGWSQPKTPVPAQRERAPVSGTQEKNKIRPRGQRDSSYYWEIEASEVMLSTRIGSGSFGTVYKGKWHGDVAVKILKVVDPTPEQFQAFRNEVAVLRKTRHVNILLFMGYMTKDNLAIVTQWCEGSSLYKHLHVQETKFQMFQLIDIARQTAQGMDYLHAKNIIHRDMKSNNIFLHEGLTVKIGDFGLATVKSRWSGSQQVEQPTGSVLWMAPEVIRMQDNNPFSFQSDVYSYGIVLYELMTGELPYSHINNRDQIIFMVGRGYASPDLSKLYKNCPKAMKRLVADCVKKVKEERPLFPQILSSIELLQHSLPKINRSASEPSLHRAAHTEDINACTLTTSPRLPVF
Lck (h), sequence (P06239 whole entry): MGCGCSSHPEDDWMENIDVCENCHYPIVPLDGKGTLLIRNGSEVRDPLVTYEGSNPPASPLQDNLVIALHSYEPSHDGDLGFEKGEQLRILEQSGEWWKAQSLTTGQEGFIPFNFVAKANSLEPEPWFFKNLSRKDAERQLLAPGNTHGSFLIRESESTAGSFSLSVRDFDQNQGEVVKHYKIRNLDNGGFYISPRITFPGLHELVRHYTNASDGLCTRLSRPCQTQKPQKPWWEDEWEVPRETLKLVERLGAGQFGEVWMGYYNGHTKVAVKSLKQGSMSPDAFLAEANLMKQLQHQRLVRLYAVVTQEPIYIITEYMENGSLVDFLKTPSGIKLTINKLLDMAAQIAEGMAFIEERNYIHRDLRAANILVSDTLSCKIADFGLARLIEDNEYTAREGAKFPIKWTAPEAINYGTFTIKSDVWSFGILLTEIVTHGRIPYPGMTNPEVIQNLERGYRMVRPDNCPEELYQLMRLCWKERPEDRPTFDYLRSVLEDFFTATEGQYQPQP
MEK1 (h), sequence (Q02750 whole entry): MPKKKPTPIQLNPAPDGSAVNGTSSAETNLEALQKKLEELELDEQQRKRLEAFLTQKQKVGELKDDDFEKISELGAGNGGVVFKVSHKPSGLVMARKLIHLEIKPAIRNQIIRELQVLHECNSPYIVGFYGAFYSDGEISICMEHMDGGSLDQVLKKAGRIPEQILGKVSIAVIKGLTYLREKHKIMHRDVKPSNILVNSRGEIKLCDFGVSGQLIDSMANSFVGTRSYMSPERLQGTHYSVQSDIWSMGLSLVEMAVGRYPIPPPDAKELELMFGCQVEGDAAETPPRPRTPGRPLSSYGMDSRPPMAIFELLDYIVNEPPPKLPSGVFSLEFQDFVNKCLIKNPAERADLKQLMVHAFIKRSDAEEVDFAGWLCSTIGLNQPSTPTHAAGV
JNK3 (r), sequence (P49187 whole entry): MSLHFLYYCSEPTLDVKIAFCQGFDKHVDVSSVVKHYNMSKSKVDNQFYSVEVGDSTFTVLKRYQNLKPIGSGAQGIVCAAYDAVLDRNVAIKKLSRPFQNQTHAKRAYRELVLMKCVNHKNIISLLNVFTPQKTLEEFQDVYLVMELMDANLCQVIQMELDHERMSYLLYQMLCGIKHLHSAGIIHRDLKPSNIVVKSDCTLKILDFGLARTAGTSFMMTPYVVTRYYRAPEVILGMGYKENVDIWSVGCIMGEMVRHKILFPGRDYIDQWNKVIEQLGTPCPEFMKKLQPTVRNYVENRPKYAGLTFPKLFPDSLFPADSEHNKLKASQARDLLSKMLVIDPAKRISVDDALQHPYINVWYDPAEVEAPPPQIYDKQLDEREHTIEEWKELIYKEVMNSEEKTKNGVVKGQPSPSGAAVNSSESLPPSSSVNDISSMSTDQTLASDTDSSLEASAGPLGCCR
MAPK1 (h), sequence (P27361 whole entry): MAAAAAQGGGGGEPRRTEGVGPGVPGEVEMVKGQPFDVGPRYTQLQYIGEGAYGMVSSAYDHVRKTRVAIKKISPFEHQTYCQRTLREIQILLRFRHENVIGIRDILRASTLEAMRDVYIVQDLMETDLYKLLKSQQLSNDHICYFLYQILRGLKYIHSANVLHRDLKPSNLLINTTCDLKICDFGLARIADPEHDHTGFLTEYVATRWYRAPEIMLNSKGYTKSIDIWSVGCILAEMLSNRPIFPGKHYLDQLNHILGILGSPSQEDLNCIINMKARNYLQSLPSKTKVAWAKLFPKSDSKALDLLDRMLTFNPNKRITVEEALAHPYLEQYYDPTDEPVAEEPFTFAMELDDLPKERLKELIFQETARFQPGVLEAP

As to `Cn1c(-c2ccc([S+](C)[O-])cc2)nc2c(Sc3ccc(F)cc3)ncnc21` (stereo not shown) [Verbd. 60, 6-(4-Fluoro-phenylsulfanyl)-8-(4-methan-sulfinyl-phenyl)-9-methyl-9H-purin], the “Hemmung von Kinasen in % PKA (h)” value in the assay with PKA (h) came out at 4%. Further, the inhibition at 30 µM at SAPK2a (h) worked out at 44%; at MAPK1 (h), 0%; at MAPK2 (h), 0%; on GSK3β (h) it was 4%; at c-RAF (h) it was 4%; at PKB (h) it was 10%. Also, the values for the inhibition at 30 µM on JNK3 (r), on Lck (h) and at MEK1 (h) were 10%, 30% and 1%, respectively. Further, the “Hemmung von Kinasen in % ROCKII (h)” value in the assay with ROCKII (h) is 0%.
For `Cn1c(-c2ccc(S(C)(=O)=O)cc2)nc2c(Sc3ccccc3)ncnc21` [Verbd. 62, 8-(4-Methansulfonyl-phenyl)-9-methyl-6-phenylsulfanyl-9H-purin], the “Hemmung von Kinasen in % PKA (h)” value in the assay on PKA (h) is 11%. The inhibition at 30 µM stood at 36% on SAPK2a (h); 9% at MAPK1 (h); 3% on MAPK2 (h); 0% on GSK3β (h); 10% on c-RAF (h); 14% on PKB (h). In addition, the inhibition at 30 µM at JNK3 (r) was 7%; on Lck (h) it was 16%; at MEK1 (h) it was 4%. Besides, the “Hemmung von Kinasen in % ROCKII (h)” value in the assay with ROCKII (h) is listed as 5%.
For the compound `C(=Cc1ncnc2[nH]cnc12)c1ccccc1` [Verbd. 72, 6-Styryl-9H-purin], the “Hemmung von Kinasen in % PKA (h)” value in the assay with PKA (h) is given as 4%. In addition, the inhibition at 30 µM turned out to be 17% on SAPK2a (h); 50% on MAPK1 (h); 20% at MAPK2 (h); 20% on GSK3β (h); 66% at c-RAF (h); 7% on PKB (h). For the same compound, the inhibition at 30 µM worked out at 2% at JNK3 (r), 37% on Lck (h) and 7% at MEK1 (h). The “Hemmung von Kinasen in % ROCKII (h)” value in the assay on ROCKII (h) was 22%.
`c1ccc(Cn2cnc3c(Sc4ccccc4)ncnc32)cc1` [Verbd. 74, 9-Benzyl-6-phenylsulfanyl-9H-purin]: in the assay on PKA (h), the “Hemmung von Kinasen in % PKA (h)” value turned out to be 0%. Besides, the inhibition at 30 µM at SAPK2a (h) is 64%; on MAPK1 (h) it was 0%; at MAPK2 (h) it was 0%; at GSK3β (h) it was 1%; on c-RAF (h) it was 0%; on PKB (h) it was 1%. In addition, the inhibition at 30 µM on JNK3 (r) came to 0%; on Lck (h), 0%; on MEK1 (h), 6%. For the same compound, the “Hemmung von Kinasen in % ROCKII (h)” value in the assay on ROCKII (h) came out at 1%.
As to `Fc1ccc(Sc2ncnc3c2ncn3Cc2ccccc2)cc1` [Verbd. 75, 9-Benzyl-6-(4-fluoro-phenylsulfanyl)-9H-purin], the “Hemmung von Kinasen in % PKA (h)” value in the assay on PKA (h) came to 0%. The inhibition at 30 µM at SAPK2a (h) is 64%; on MAPK1 (h) it was 0%; at MAPK2 (h) it was 0%; at GSK3β (h) it was 0%; on c-RAF (h), 0%; on PKB (h), 1%. Further, the inhibition at 30 µM on JNK3 (r) is 0%; on Lck (h), 16%; on MEK1 (h) it was 4%. Besides, in the assay on ROCKII (h), the “Hemmung von Kinasen in % ROCKII (h)” value is 5%.
`Fc1ccc(Cn2cnc3c(Sc4ccccc4)ncnc32)cc1` [Verbd. 76, 9-(4-Fluoro-benzyl)-6-phenylsulfanyl-9H-purin]: in the assay with PKA (h), the “Hemmung von Kinasen in % PKA (h)” value came to 0%. For the same compound, the inhibition at 30 µM came to 67% on SAPK2a (h); 17% at MAPK1 (h); 0% at MAPK2 (h); 0% on GSK3β (h); 0% on c-RAF (h); 13% on PKB (h). Also, the figures for the inhibition at 30 µM at JNK3 (r), on Lck (h) and on MEK1 (h) were 0%, 12% and 1%, respectively. For the same compound, in the assay with ROCKII (h), the “Hemmung von Kinasen in % ROCKII (h)” value is 2%.
As for `Fc1ccc(Cn2cnc3c(Sc4ccc(F)cc4)ncnc32)cc1` [Verbd. 77, 9-(4-Fluoro-benzyl)-6-(4-fluoro-phenylsulfanyl)-9H-purin], in the assay on PKA (h), the “Hemmung von Kinasen in % PKA (h)” value is given as 0%. The inhibition at 30 µM on SAPK2a (h) stood at 27%; on MAPK1 (h) it was 6%; on MAPK2 (h), 0%; on GSK3β (h), 8%; at c-RAF (h) it was 0%; at PKB (h), 0%. For the same compound, the figures for the inhibition at 30 µM at JNK3 (r), at Lck (h) and at MEK1 (h) were 0%, 16% and 3%, respectively. The “Hemmung von Kinasen in % ROCKII (h)” value in the assay with ROCKII (h) came to 0%.
In the case of `Cn1c(C#CCCO)nc2c(Sc3ccccc3)ncnc21` [Verbd. 79, 4-(9-Methyl-6-phenylsulfanyl-9H-purin-8-yl)-but-3-yn-1-ol], in the assay with PKA (h), the “Hemmung von Kinasen in % PKA (h)” value is 0%. The inhibition at 30 µM at SAPK2a (h) was 3%; on MAPK1 (h) it was 0%; at MAPK2 (h), 0%; on GSK3β (h), 0%; on c-RAF (h) it was 0%; at PKB (h) it was 33%. Besides, the inhibition at 30 µM on JNK3 (r) was found to be 0%; on Lck (h), 11%; on MEK1 (h), 0%. In addition, in the assay with ROCKII (h), the “Hemmung von Kinasen in % ROCKII (h)” value turned out to be 0%.
